This assay addresses T1, BRD9 (Homo sapiens, UniProt Q9H8M2).
T1 sequence (Q9H8M2 1-597): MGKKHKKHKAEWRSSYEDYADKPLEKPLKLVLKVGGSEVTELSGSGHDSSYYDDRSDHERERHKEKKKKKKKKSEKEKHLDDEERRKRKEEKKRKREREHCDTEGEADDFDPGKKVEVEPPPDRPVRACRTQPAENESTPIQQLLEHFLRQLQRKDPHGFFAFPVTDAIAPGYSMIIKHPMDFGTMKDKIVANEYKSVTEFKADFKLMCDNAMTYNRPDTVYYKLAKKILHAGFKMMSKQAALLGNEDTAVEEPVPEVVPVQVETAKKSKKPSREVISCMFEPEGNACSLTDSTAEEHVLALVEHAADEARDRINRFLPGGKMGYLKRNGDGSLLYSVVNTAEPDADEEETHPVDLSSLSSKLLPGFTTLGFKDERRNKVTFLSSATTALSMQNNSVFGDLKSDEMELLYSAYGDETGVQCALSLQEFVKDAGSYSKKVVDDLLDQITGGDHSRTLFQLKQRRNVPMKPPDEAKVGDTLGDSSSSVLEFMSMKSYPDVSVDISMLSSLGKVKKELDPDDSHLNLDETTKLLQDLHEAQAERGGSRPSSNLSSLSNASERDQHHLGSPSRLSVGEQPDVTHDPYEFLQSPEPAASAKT
Kind of assay: Degradation of BRD9 (IF), immunofluorescence in MV4-11 cells, 24 hours (Assay Protocol 2). In kind it is cell-based. Details: A suspension of MV4-11 cells (ATCC CRL-9591) was prepared; host or cells: MV4-11. Conditions: BRD9 degradation. In a few lines: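 % BRD9 remaining, scaled between DMSO (high) and 100 nM CFT-8634 (low) control wells, derives from mean Alexa 647 contrast in central nuclei by high-content imaging. MV4-11 cells had 24 h compound exposure at 37° C. before PFA fixation, Triton permeabilisation and anti-BRD9 E4Q3F immunostaining.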

Where [1] appears, read: Assay protocol 2, read-out: DC50.
Setting [2] is: MV4-11, Assay protocol 2, read-out: Dmax.

Where two headings read alike, the source gives them in different places.

The term DC50 denotes the midpoint of the concentration-degradation curve. As a reminder, the Dmax is the greatest extent of degradation seen. Regarding `COc1cc(-c2cn(C)c(=O)c(C)c2C)cc(OC)c1CN1CC2CCC1CN2Cc1cccc2c1CCN(C(=O)/C(C#N)=C/C(C)(C)C)C2C` (mixture of isomers) [Compound B101, (E/Z)-2-(5-((5-(2,6-dimethoxy-4-(1,4,5-trimethyl-6-oxo-1,6-dihydropyridin-3-yl)benzyl)-2,5-diazabicyclo[2.2.2]octan-2-yl)methyl)-1-methyl-1,2,3,4-tetrahydroisoquinoline-2-carbonyl)-4,4-dimethylpent-2-enenitrile], under setting [1], the DC50 was in the range of 1.25 to 10 nM. For the same compound, under setting [2], the Dmax lay in the range of 40 to 70%.

Turning to `COc1cc(-c2cn(C)c(=O)c(C)c2C)cc(OC)c1CN1CC(N(C)Cc2ccc3c(c2)[C@H](C)N(C(=O)/C(C#N)=C/C(C)(C)C)CC3)C1` (single isomer, unassigned) [Compound C70, (E/Z)-2-(7-(((1-(2,6-dimethoxy-4-(1,4,5-trimethyl-6-oxo-1,6-dihydropyridin-3-yl)benzyl)460zetidine-4-yl)(methyl)amino)methyl)-1-methyl-1,2,3,4-tetrahydroisoquinoline-2-carbonyl)-4,4-dimethylpent-2-enenitrile], under setting [1], the DC50 was in the range of 25 to 1000 nM. For the same compound, the Dmax under setting [2] was in the range of 40 to 70%.

As to `COc1cc(-c2cn(C)c(=O)c(C)c2C)cc(OC)c1CN1CCC2(CC1)CCN(c1ccc3c(c1)[C@H](C)N(C(=O)/C(C#N)=C/C(C)(C)C)CC3)C2` (single isomer, unassigned) [Compound C66], the DC50 under setting [1] lay within 1.25 to 10 nM. In addition, under setting [2], the Dmax lay within 40 to 70%.

In the case of `COc1cc(-c2cn(C)c(=O)c(C)c2C)cc(OC)c1CN1CCN(Cc2cccc3c2CCN(C(=O)/C(C#N)=C/C(C)(C)CF)C3C)C2(CC2)C1` (single isomer, unassigned) [Compound B195, (E/Z)-2-(5-((7-(2,6-dimethoxy-4-(1,4,5-trimethyl-6-oxo-1,6-dihydropyridin-3-yl)benzyl)-4,7-diazaspiro[2.5]octan-4-yl)methyl)-1-methyl-1,2,3,4-tetrahydroisoquinoline-2-carbonyl)-5-fluoro-4,4-dimethylpent-2-enenitrile], the DC50 under setting [1] is < 1.25 nM. Moreover, the Dmax under setting [2] was > 75%.

On to `COc1cc(-c2cn(C)c(=O)c(C)c2C)cc(OC)c1CN1CCC(Cc2cccc3c2CCN(C(=O)/C(C#N)=C/C(C)(C)C)C3C)C(C)(C)C1` (stereo not shown) [Compound C62], for which the DC50 under setting [1] fell in the range of 10 to 25 nM. For the same compound, the Dmax under setting [2] was > 75%.

As to `COc1cc(-c2cn(C)c(=O)c(C)c2C)cc(OC)c1CN(C)C1CCN(C(=O)/C(C#N)=C/c2cccc(Br)n2)CC1` [BRD9z, (E/Z)-3-(6-bromopyridin-2-yl)-2-(4-((2,6-dimethoxy-4-(1,4,5-trimethyl-6-oxo-1,6-dihydropyridin-3-yl)benzyl)(methyl)amino)piperidine-1-carbonyl)acrylonitrile], the Dmax (MV4-11, Table 4, determined according to Assay Protocol 2, read-out: Dmax^2) is > 70%. For the same compound, the DC50 (Table 4, determined according to Assay Protocol 2, read-out: DC50^2) was > 200 nM.

For the compound `COc1cc(-c2cn(C)c(=O)c(C)c2C)cc(OC)c1CN1CCC(N(C)c2cccc3c2CCN(C(=O)/C(C#N)=C/C(C)(C)C)C3C)C(F)(F)C1` (mixture of isomers) [Compound C57], the DC50 under setting [1] was 25 to 1000 nM. Further, the Dmax under setting [2] was in the range of 40 to 70%.

As to `COc1cc(-c2cn(C)c(=O)c(C)c2C)cc(OC)c1CN1C[C@@H](C)N(Cc2cccc3c2CCN(C(=O)/C(C#N)=C/C(C)(C)C)C3C)C[C@@H]1C` (mixture of isomers) [Compound B111, (E/Z)-2-(5-(((2R,5S)-4-(2,6-dimethoxy-4-(1,4,5-trimethyl-6-oxo-1,6-dihydropyridin-3-yl)benzyl)-2,5-dimethylpiperazin-1-yl)methyl)-1-methyl-1,2,3,4-tetrahydroisoquinoline-2-carbonyl)-4,4-dimethylpent-2-enenitrile], the half-maximal degradation concentration (DC50) under setting [1] lay within 10 to 25 nM. Moreover, under setting [2], the Dmax is > 75%.

As for `COc1cc(-c2cn(C)c(=O)c(C)c2C)cc(OC)c1CN1CCC2(CCN(c3ccc4c(c3)[C@H](C)N(C(=O)/C(C#N)=C/C(C)(C)C)CC4)C2)C1` (single isomer, unassigned) [Compound C52], the DC50 under setting [1] was in the range of 10 to 25 nM. For the same compound, under setting [2], the greatest degradation seen (Dmax) was in the range of 40 to 70%.

On to `CCC1c2cccc(CN3CCN(Cc4c(OC)cc(-c5cn(C)c(=O)c(C)c5C)cc4OC)CC34CC4)c2CCN1C(=O)/C(C#N)=C/C(C)(C)C` (single isomer, unassigned) [Compound C94, (E/Z)-2-(5-((7-(2,6-dimethoxy-4-(1,4,5-trimethyl-6-oxo-1,6-dihydropyridin-3-yl)benzyl)-4,7-diazaspiro[2.5]octan-4-yl)methyl)-1-ethyl-1,2,3,4-tetrahydroisoquinoline-2-carbonyl)-4,4-dimethylpent-2-enenitrile], for which the DC50 under setting [1] is < 1.25 nM. Further, the Dmax under setting [2] is > 75%.

Take `COc1cc(-c2cn(C)c(=O)c3ccsc23)cc(OC)c1CN1CCN(Cc2cccc3c2CCN(C(=O)/C(C#N)=C/C(C)(C)C)C3C)C2(CC2)C1` (mixture of isomers) [Compound B107, (E/Z)-2-(5-((7-(2,6-dimethoxy-4-(5-methyl-4-oxo-4,5-dihydrothieno[3,2-c]pyridin-7-yl)benzyl)-4,7-diazaspiro[2.5]octan-4-yl)methyl)-1-methyl-1,2,3,4-tetrahydroisoquinoline-2-carbonyl)-4,4-dimethylpent-2-enenitrile]: under setting [1], the DC50 was < 1.25 nM. Also, the Dmax under setting [2] is > 75%.

`COc1cc(-c2cn(C)c(=O)c(C)c2C)cc(OC)c1CN1CCN(Cc2ccc3c(c2)[C@@H](C)N(C(=O)/C(C#N)=C/C(C)(C)C)CC3)CC12CC2` (mixture of isomers) [Compound B199, (E/Z)-2-(7-((4-(2,6-dimethoxy-4-(1,4,5-trimethyl-6-oxo-1,6-dihydropyridin-3yl)benzyl)-4,7-diazaspiro[2.5]octan-7-yl)methyl)-1-methyl-1,2,3,4-tetrahydroisoquinoline-2-carbonyl)-4,4-dimethylpent-2-enenitrile]: under setting [1], the DC50 was in the range of 25 to 1000 nM. Under setting [2], the Dmax fell in the range of 40 to 70%.

As for `COc1cc(-c2cn(C)c(=O)c(C)c2C)cc(OC)c1CN1CCC2(CCN(c3cccc4c3CCN(C(=O)/C(C#N)=C/C(C)(C)C)C4C)C2)C1` (stereo not shown) [Compound C42, (E2Z)-2-(5-(7-(2,6-dimethoxy-4-(1,4,5-trimethyl-6-oxo-1,6-dihydropyridin-3-yl)benzyl)-2,7-diazaspiro[4.4]nonan-2-yl)-1-methyl-1,2,3,4-tetrahydroisoquinolin-2-carbonyl)-4,4-dimethylpent-2-enenitrile], the DC50 under setting [1] was 1.25 to 10 nM. Under setting [2], the Dmax fell in the range of 40 to 70%.

Consider `COc1cc(-c2cn(C)c(=O)c3ccsc23)cc(OC)c1CN1CCC(Oc2cccc3c2CCN(C(=O)/C(C#N)=C/c2cccc(Br)n2)C3C)CC1` (mixture of isomers) [Compound B77], for which the DC50 under setting [1] is < 1.25 nM. The Dmax under setting [2] was 40 to 70%.

Regarding `COc1cc(-c2cn(C)c(=O)c(C)c2C)cc(OC)c1CN1CCN(C(=O)CCCCOc2ccc3c(c2)C(C)N(C(=O)/C(C#N)=C/c2nccs2)CC3)CC1` (mixture of isomers) [Compound B84, (E/Z)-2-(7-((5-(4-(2,6-dimethoxy-4-(1,4,5-trimethyl-6-oxo-1,6-dihydropyridin-3-yl)benzyl)piperazin-1-yl)-5-oxopentyl)oxy)-1-methyl-1,2,3,4-tetrahydroisoquinoline-2-carbonyl)-3-(thiazol-2-yl)acrylonitrile], under setting [1], the DC50 was 1.25 to 10 nM. Moreover, under setting [2], the Dmax is > 75%.

With `COc1cc(-c2cn(C)c(=O)c(C)c2C)cc(OC)c1CN1CC(N(C)Cc2ccc3c(c2)[C@@H](C)N(C(=O)/C(C#N)=C/C(C)(C)C)CC3)C1` (single isomer, unassigned) [Compound C71, (E/Z)-2-(7-(((1-(2,6-dimethoxy-4-(1,4,5-trimethyl-6-oxo-1,6-dihydropyridin-3-yl)benzyl)460zetidine-4-yl)(methyl)amino)methyl)-1-methyl-1,2,3,4-tetrahydroisoquinoline-2-carbonyl)-4,4-dimethylpent-2-enenitrile], the DC50 under setting [1] was in the range of 25 to 1000 nM. The Dmax under setting [2] was 40 to 70%.

For the compound `COc1cc(-c2cn(C)c(=O)c(C)c2C)cc(OC)c1CN1CCN(Cc2cccc3c2CCN(C(=O)/C(C#N)=C/C(C)(C)CF)C3C(C)C)CC12CC2` (single isomer, unassigned) [Compound C102, (E/Z)-2-(5-((4-(2,6-dimethoxy-4-(1,4,5-trimethyl-6-oxo-1,6-dihydropyridin-3-yl)benzyl)-4,7-diazaspiro[2.5]octan-7-yl)methyl)-1-isopropyl-1,2,3,4-tetrahydroisoquinoline-2-carbonyl)-5-fluoro-4,4-dimethylpent-2-enenitrile], under setting [1], the DC50 was 25 to 1000 nM. In addition, the Dmax under setting [2] lay within 40 to 70%.

Values taken from patent US20260092061A1, “COMPOUNDS FOR TARGETED PROTEIN DEGRADATION” (Amphista Therapeutics Limited, priority 2022, published 2026).
